Experimental data from US8722052B2, “Vaccinia virus protein A46 peptide and use thereof” (priority 2008, dated 2014).
Read-outs that look alike come from different tables or passages of the source.

What was measured:
TLR4 = assay type: cell-based, human; conditions: THP-1; for inhibition of LPS-induced TNFα production: 6 h
TLR9 = target: T1, TLR9 (Mus musculus, UniProt Q9EQU3); test: CpG-induced MIP-2 production in RAW264.7 cells, ELISA; assay type: cell-based, murine; conditions: peptide 5 or 20 μM 1 h before 1 μg/ml CpG, supernatant 24 h
T1 construct: using the murine macrophage cell line RAW264.7; endogenous in cells; host or cells: RAW264.7
T1 sequence (Q9EQU3 26-1032): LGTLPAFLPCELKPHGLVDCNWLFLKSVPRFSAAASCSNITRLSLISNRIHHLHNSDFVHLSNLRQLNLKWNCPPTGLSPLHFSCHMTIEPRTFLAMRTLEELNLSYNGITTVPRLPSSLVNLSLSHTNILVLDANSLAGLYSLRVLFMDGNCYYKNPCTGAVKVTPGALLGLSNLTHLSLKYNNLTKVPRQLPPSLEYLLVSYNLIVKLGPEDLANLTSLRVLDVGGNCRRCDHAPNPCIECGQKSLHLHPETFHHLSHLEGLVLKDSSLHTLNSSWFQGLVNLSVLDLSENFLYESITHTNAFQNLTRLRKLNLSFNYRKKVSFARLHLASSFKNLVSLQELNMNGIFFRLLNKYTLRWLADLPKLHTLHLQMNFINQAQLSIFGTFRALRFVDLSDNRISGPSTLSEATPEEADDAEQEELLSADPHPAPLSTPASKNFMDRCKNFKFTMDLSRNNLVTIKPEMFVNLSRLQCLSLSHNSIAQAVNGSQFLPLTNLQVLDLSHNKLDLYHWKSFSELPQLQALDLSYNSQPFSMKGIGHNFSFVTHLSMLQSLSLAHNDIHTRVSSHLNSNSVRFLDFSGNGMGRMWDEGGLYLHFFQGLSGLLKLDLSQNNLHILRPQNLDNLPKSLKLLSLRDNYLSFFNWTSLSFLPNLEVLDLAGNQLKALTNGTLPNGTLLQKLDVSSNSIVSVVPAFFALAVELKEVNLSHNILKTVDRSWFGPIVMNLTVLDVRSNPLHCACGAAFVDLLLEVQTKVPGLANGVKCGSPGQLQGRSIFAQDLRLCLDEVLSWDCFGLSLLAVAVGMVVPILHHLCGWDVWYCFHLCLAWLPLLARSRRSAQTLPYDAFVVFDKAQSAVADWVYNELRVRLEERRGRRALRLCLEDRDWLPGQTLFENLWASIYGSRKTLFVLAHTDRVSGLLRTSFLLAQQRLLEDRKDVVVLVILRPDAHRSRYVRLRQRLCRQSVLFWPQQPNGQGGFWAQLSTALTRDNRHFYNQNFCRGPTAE
Procedure: FIGS. 1A and B are bar charts showing the effect of peptides derived from A46 on CpG-induced MIP-2 production murine RAW264.7 cells. Cells were seeded in 96 well plates (1.5×10^5 cells/nil) at least 24 hours before treatment. A46 peptides were added to the cells at a concentration of 5 or 20 μM 1 hour before stimulating with 1 μg/ml CpG. Supernatants were collected 24 hours after stimulation and assayed for MIP2 by ELISA. No peptides were added into the control wells (black bars). (A) peptides A461-A467 (SEQ ID NO. 17 to 23). (B) peptides A468-A4614 (SEQ ID NO. 24 to 30) (excluding A4612 SEQ ID NO. 28). Data is representative of at least two experiments each performed in triplicate and is expressed as mean±s.d;
Cytokine and chemokine production from cells or mouse serum was measured by ELISA using Duoset kits from R&D systems, according to the manufacturer's instructions.
These peptides were initially screened for effects on TLR-induced gene induction in vitro using the murine macrophage cell line RAW264.7. Unmethylated CpG dinucleotides of bacterial DNA sequences are detected by TLR9, which leads to production of pro-inflammatory cytokines and chemokines, including TNFα via a MyD88-dependent pathway (Latz et al, 2004). […] The effect of the peptides on two TLR9-induced cytokines, namely TNFα and MIP-2, was measured by ELISA. […]

PBMCs = test: MTT cell viability assay, PBMC; assay type: cell-based, human; conditions: peptide 1, 5 and 25 μM
Procedure: FIGS. 13A and B are bar charts showing the effect of A467 and A464 on LPS-induced TNFα production and on cell viability in primary human cells. Peripheral blood mononuclear cells (PBMCs) were seeded in 96 well plates (1 ×10^6 cells/ml) 24 hours before treatment. A467 (SEQ ID NO. 23) and A464 (SEQ ID NO. 20) were added to the cells at 1, 5 and 25 μM 1 hour before stimulating with 10 ng/ml LPS. The peptides were added into the unstimulated control wells at 25 μM. Supernatants were collected 6 hours after stimulation and assayed for TNFα production by ELISA (A). The cells were assayed for viability by the MTT assay (B). No peptides were added to the control wells (black bars). Data is representative of at least three experiments each performed in triplicate and is expressed as mean±s.d;
Cell viability was measured by assessing mitochondrial function using an MTT (3-(4,5-Dimethylthiazol-2-yl)-2,5-diphenyltetrazolium bromide) assay. Cells were seeded into 96 well plates and treated with peptides and agonists as described above in relation to the Figs. Wells containing medium only served as a blank control. To terminate treatment of cells, medium was removed and the cells were washed once with PBS. […] MTT was then removed and 200 μl per well of dimethyl sulphoxide (DMSO) was added and cells incubated for 20 min at 37° C. in the dark, prior to absorbance being read at 595 nm on a spectrophotometer.

Sequence of TLR4 (O00206 24-839): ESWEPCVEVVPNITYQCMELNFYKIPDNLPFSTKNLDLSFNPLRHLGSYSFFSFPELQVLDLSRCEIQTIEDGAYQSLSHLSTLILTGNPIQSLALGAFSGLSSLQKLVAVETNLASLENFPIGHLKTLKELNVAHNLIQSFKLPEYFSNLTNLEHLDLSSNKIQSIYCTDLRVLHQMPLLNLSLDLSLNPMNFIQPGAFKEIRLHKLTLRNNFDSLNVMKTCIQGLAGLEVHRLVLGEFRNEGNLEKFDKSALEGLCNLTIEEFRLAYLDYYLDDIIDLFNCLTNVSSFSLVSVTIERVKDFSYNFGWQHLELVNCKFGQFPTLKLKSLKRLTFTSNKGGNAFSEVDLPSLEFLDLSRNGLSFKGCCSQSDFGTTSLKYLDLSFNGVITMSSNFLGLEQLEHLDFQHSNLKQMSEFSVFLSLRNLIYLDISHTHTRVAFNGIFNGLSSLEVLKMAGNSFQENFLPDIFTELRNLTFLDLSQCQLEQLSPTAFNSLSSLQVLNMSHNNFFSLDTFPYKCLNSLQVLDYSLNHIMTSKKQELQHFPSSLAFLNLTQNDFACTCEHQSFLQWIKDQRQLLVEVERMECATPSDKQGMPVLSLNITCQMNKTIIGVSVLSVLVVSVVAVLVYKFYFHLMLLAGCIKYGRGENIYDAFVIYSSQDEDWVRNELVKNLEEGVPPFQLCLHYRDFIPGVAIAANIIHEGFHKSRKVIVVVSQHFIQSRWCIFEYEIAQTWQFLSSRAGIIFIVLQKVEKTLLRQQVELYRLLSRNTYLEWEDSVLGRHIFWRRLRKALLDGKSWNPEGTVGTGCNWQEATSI
Sequence of TLR4 (Q9Y6Y9 17-160 partner limits assumed): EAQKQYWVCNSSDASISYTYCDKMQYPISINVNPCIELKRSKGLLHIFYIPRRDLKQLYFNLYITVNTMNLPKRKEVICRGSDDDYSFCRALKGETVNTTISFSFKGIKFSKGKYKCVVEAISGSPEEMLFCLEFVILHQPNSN

KYSFKLILAEYRRRRRRRRR [Peptide A464] was tested, and the “inhibition of LPS-induced hTNFα production, peptide added after LPS” value (TLR4; 5 and 10 μM peptide added 1 hour after LPS stimulation) was “almost completely inhibited”, the “inhibition of LPS-induced TNFα production” value (TLR4; peptide 5 or 10 μM 1 h before 10 ng/ml LPS) was “complete inhibition of TLR4 was achieved at 5 and 10 μM” and the “inhibition of LPS-induced TNFα production” value (TLR4; peptide 20 or 40 μM 1 h before 100 ng/ml LPS) was 20 μM A464 (SEQ ID No. 20) inhibited TLR4-mediated TNFα production. For the same sequence, the “inhibition of CpG-induced MIP-2 secretion” value (TLR9) was “little or no effect” and the “toxicity (MTT)” value (PBMCs) was “not toxic”.
